According to patent US5736528A, “N^6 -(epoxynorborn-2-yl) adenosines as A1 adenosine receptor agonists” (priority 1995, dated 1998):
Read-outs that look alike come from different tables or passages of the source. Values belong to the molecule of their own block, whether it stands above or below them.

Legend:
A1 receptor [1] = biological target: T1, A1 receptor (Cavia porcellus, UniProt P47745); experiment: A1 receptor binding with [3H]CPX in brain membranes (Table 4); set-up: species or system guinea pig
T1 construct: isolated perfused guinea pig heart; from tissue; host or cells: isolated perfused guinea pig heart
T1 sequence (P47745 1-326): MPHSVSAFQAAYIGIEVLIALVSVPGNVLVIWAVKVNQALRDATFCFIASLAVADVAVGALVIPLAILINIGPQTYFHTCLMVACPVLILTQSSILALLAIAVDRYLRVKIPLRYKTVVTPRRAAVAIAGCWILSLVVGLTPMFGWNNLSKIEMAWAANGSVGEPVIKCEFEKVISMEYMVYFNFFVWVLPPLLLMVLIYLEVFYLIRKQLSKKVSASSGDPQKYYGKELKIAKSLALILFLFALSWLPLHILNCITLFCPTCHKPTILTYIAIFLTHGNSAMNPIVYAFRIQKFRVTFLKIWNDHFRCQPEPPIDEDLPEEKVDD
Text: Radioligand binding studies.
(§2) Values are mean ± SEM of triplicate determinations in each
of several (n) preparations.

[2] = tested on: paroxysmal supraventricular tachycardia (PSVT); details: in vivo; cited from earlier work
A2 adenosine receptor [3] = experiment: Hypotensive (A2) effect in whole animals; assay type: in vivo
A1 adenosine receptor [4] = biological target: T2, A1 adenosine receptor (Cavia porcellus, UniProt P47745); experiment: Slowing of A-V conduction (A1 effect) versus coronary vasodilation (A2 effect); set-up: slowing of A--V (A1 effect) conduction; from tissue
phosphodiesterase = experiment: Phosphodiesterase activity in homogenates of DDT1 MF-2 cells; assay type: biochemical; details: DDT1 MF-2 homogenate, 45 min, 30° C.
A1-adenosine receptor [5] = details: 1 μM (-)isoproterenol
A1-adenosine receptor [6] = details: 1 μM alone; 10 min
A1 adenosine receptor [7] = biological target: A1 adenosine receptor (Homo sapiens, UniProt P30542); experiment: A1 adenosine receptor agonist potency and selectivity (summary); details: racemic isomers
A1-adenosine receptor [8] = biological target: T3, A1-adenosine receptor (Mesocricetus auratus, UniProt A0A1U8BVR4); details: EC50, text to Table 8, DDT cells
T3 sequence (A0A1U8BVR4 1-326): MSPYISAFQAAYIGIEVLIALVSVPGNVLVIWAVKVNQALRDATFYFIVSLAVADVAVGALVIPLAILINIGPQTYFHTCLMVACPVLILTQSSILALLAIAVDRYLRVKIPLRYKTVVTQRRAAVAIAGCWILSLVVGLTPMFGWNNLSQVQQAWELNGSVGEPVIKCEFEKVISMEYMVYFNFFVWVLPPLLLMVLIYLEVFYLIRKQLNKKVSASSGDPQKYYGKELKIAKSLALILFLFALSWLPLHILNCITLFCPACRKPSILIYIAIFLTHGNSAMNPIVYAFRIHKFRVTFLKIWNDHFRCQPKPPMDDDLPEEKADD

[9] = biological target: T4, rat brain adenosine A1 receptors (Rattus norvegicus, UniProt P25099); experiment: Antagonism of radioligand binding to rat brain adenosine A1 receptors
T4 construct: rat brain A1 adenosine receptors; from tissue; host or cells: rat brain
T4 sequence (P25099 1-326): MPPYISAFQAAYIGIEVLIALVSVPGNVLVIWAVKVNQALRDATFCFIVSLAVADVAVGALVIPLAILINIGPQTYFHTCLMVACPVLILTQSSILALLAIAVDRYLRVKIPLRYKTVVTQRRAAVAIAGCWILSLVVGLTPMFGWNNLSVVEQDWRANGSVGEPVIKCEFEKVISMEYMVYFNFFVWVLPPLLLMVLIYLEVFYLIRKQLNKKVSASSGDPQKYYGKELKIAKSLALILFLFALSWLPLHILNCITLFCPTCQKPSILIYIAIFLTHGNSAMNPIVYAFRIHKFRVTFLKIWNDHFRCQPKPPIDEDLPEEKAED
Text: (§3) rat brain adenosine A1 and A2 receptors ("IC50 "* values)
(§4) *"IC50 " refers to the concentration at which radioligand binding to
receptors was 50% inhibited.

A1 adenosine receptor [10] = biological target: T5, A1 adenosine receptor (Rattus norvegicus, UniProt P25099); experiment: Biological activity and duration of action of ENX enantiomers; assay type: in vivo; details: for duration of action: S- vs R-enantiomer
T5 construct: from tissue; host or cells: whole animal
T5 sequence (P25099 1-326): T4 sequence (P25099 1-326)

[11] = tested on: serum cholesterol and heparin precipitating β-lipoproteins; experiment: Serum cholesterol and heparin precipitating β-lipoproteins in mice; assay type: in vivo; details: 100 mg/kg per os
[12] = tested on: guinea pig tracheal muscle; experiment: Relaxation of tracheal muscle
Text: (§1) However, that can be useful in treating conditions that indicate short-acting treatments.

hydrated rat = experiment: Saluretic/kaluretic activity in hydrated rat; assay type: in vivo; details: 30 mg/kg per os
Text: as §1

[13] = biological target: T6, rat brain A1 adenosine receptors (Rattus norvegicus, UniProt P25099); experiment: Equilibrium dissociation constants for rat brain A1 adenosine receptors; assay type: binding; details: Table 6
T6 construct: rat brain A1 adenosine receptors; from tissue; host or cells: rat brain

rats = experiment: Cumulative urine output (diuretic activity) in rats; assay type: in vivo, rat
[14] = biological target: T7, rat brain adenosine A2 receptors (Rattus norvegicus, UniProt P30543); experiment: Antagonism of radioligand binding to rat brain adenosine A2 receptors
T7 construct: rat brain adenosine A1 and A2 receptors; from tissue; host or cells: rat brain
Text: as §3, §4
receptors was 50% inhibited.

[15] = Metabolism of ENX enantiomer; assay type: in vitro ADME
A2 receptor [16] = biological target: T8, A2 receptor (Cavia porcellus, UniProt P46616); experiment: Antagonism of A2 receptor-mediated coronary vasodilation (coronary conductance) caused by adenosine, isolated perfused heart; set-up: species or system guinea pig
T8 construct: isolated perfused guinea pig heart; from tissue; host or cells: isolated perfused guinea pig heart (coronary circulation)
Text: The values are the mean±SEM from five guinea pig hearts.
of a maximum coronary vasodilation caused by adenosine. Values in

A2 receptor [17] = biological target: T9, A2 receptor (Rattus norvegicus, UniProt P30543); experiment: A2 receptor binding with [3H]NECA in PC12 cell membranes; details: mean ± SEM (n), read-out: Ki, PC-12
T9 construct: endogenous in cells; host or cells: PC12 cell membranes
Description: Radioligand binding studies.
A2 receptor binding was carried out with [^3 H]NECA in PC12 cell
membranes. Values are mean ± SEM of triplicate determinations in each
of several (n) preparations.

A1 adenosine receptor [18] = biological target: T2, A1 adenosine receptor; experiment: A1 receptor binding with [3H]CPX in forebrain membranes (Table 5); set-up: guinea pig forebrain (A1 receptor); from tissue; host or cells: guinea pig forebrain membranes; species or system guinea pig
Text: (§5) Values are mean ± S.E.M. of triplicate determinations in
each of four preparations.

A1 receptor [19] = biological target: T1, A1 receptor; experiment: Antagonism of A1 receptor-mediated negative dromotropic effect (S-H interval prolongation) of CCPA, Schild analysis, isolated perfused heart; set-up: species or system guinea pig; details: for Slope of Schild plot: mean ± S.E.M.
Text: Potency of various alkylxanthines to antagonize A1
cardiac response: results of Schild analysis.
Cardiac response: antagonism of the negative dromotropic effect of the
selective A1 agonist CCPA.

A2 adenosine receptor [20] = biological target: T10, A2 adenosine receptor (Cavia porcellus, UniProt P46616); experiment: A2 receptor binding with [3H]CGS 21,860 in striatum membranes (Table 5); set-up: species or system guinea pig; details: mean ± S.E.M., read-out: K1, A2 (striatum)
T10 construct: from tissue; host or cells: guinea pig striatum membranes
Text: as §5
each of four preparations.

A1 receptor [21] = biological target: T11, A1 receptor (Mesocricetus auratus, UniProt A0A1U8BVR4); experiment: A1 receptor binding with [3H]CPX in intact DDT1 MF2 cells
T11 sequence (A0A1U8BVR4 1-326): T3 sequence (A0A1U8BVR4 1-326)
Text: Radioligand binding studies.
as §2
of several (n) preparations.

A1 receptor [22] = biological target: T1, A1 receptor; experiment: S-H interval prolongation by adenosine in isolated heart, antagonism by ENX; set-up: species or system guinea pig
Text: The height of each bar graph presents the mean±SEM of 4 experiments.

[23] = tested on: negative dromotropic effect of carbachol or MgCl2; experiment: Specificity: negative dromotropic effect of carbachol or MgCl2 in isolated heart; set-up: species or system guinea pig; details: ENX 2 nM, 2 μM
Text: The height of each bar graph presents the mean±SEM of 4 experiments. Only the S--H interval prolongation caused by adenosine was antagonized by ENX.

guinea pig hearts = experiment: Left ventricular pressure and dP/dt (inotropic effect) in isolated hearts
Text: Identical results were obtained in three other hearts.

T8 sequence (P46616 whole entry, the tested form may be a part): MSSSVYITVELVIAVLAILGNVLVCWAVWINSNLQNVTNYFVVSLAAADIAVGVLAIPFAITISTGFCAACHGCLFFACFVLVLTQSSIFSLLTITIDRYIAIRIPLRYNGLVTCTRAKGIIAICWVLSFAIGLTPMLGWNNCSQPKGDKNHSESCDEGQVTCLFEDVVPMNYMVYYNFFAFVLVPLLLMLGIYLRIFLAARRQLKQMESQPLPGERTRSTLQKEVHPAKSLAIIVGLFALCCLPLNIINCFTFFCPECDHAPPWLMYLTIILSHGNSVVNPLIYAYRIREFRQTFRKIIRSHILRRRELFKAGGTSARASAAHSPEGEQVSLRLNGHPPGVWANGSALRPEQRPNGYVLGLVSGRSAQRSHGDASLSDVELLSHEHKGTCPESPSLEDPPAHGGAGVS
T7 sequence (P30543 whole entry): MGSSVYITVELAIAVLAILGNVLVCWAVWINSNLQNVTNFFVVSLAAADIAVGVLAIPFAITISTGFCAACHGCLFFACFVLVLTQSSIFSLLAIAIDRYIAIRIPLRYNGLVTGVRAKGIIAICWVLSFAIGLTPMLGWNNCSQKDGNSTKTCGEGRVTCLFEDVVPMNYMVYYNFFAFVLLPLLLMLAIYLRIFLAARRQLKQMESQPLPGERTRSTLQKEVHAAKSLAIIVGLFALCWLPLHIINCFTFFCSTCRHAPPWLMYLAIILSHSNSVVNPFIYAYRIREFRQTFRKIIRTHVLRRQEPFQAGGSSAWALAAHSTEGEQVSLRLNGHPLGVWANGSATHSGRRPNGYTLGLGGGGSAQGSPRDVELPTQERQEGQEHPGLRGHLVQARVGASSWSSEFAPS
Chain of A1 adenosine receptor (Homo sapiens, UniProt P30542) (P30542 whole entry): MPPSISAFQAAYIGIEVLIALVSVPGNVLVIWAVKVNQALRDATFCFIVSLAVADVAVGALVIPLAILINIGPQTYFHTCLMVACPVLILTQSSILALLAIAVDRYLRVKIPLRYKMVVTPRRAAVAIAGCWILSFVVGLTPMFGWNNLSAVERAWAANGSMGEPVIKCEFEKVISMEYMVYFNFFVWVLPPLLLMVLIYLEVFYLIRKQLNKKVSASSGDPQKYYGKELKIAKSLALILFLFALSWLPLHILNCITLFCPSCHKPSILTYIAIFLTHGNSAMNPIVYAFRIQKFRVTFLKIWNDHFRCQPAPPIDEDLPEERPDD
T10 sequence (P46616 whole entry): as the sequence (P46616 whole entry, the tested form may be a part) above
T9 sequence (P30543 whole entry): as the sequence (P30543 whole entry) above

Ki (A1 receptor [1]; read-out: Ki, Brain): 41 ± 13 nM
Structure (SMILES): Cn1c(=O)c2[nH]c(C3CCCC3)nc2n(C)c1=O [CPT, 8cyclopentyl-1,3-dimethylxanthine]

Structure (SMILES): Nc1ncnc2c1ncn2[C@@H]1O[C@H](CO)[C@@H](O)[C@H]1O [Adenosine]
effectiveness in terminating PSVT [2]: > 90%

hypotensive (A2) effect (A2 adenosine receptor [3]): no discernable hypotensive (A2) effect
Structure (SMILES): OC[C@H]1O[C@@H](n2cnc3c(N[C@H]4C[C@@H]5C[C@H]4[C@H]4O[C@@H]54)ncnc32)[C@H](O)[C@@H]1O [N^6-(2S-endo-5,6-epoxynorborn-2-yl) adenosine]
potency for slowing of A-V conduction (A1) over coronary vasodilation (A2) (A1 adenosine receptor [4]): more than 100 fold

Structure (SMILES): CC(C)Cn1c(=O)n(C)c(=O)c2[nH]cnc21 [IBMX, isobutylmethylxanthine, reference compound]
phosphodiesterase inhibition (phosphodiesterase): inhibits phosphodiesterase

Structure (SMILES): CC(C)NC[C@H](O)c1ccc(O)c(O)c1 [(-)Isoproterenol, reference compound]
stimulated cAMP accumulated (A1-adenosine receptor [5]): 458 ± 41 pmol cAMP formed per 10 minutes
cAMP accumulation increase above basal level (A1-adenosine receptor [6]): 57 fold

A1 agonist potency and selectivity (A1 adenosine receptor [7]): potent and highly selective agonists
EC50 (A1-adenosine receptor [8]): 1 to 2 nM
Structure (SMILES): OC[C@H]1O[C@@H](n2cnc3c(N[C@H]4C[C@@H]5C[C@H]4[C@H]4O[C@@H]54)ncnc32)[C@H](O)[C@@H]1O (relative stereo) [N^6-(endo-5,6-epoxynorborn-2-yl) adenosine]

Structure (SMILES): CCCn1c(=O)c2[nH]c([C@H]3C[C@@H]4C[C@H]3[C@H]3O[C@@H]43)nc2n(CCC)c1=O [S-ENX]
IC50 [9]: 1.15 nM
duration of action (A1 adenosine receptor [10]; listed as S-enantiomer): longer duration of action than the R-enantiomer
duration of action (A1 adenosine receptor [10]; listed as S-enantiomer of ENX): longer
share of the biological activity of racemic ENX (A1 adenosine receptor [10]; in vivo): 80-90%
serum cholesterol and heparin precipitating β-lipoproteins [11]: reduced serum cholesterol and heparin precipitating β-lipoproteins
tracheal smooth muscle relaxation / bronchodilation [12]: bronchodilators
relaxation of constricted tracheal muscle ([12]; guinea pig, 100 mg/kg per os): relaxed constricted guinea pig tracheal muscle
kaluretic activity (hydrated rat): Moderate kaluretic activity
Ki [13]: 0.98 nM
diuretic activity (cumulative urine output) (rats; 0.1 mg/kg i.v., 2 hours, rats): more potent than the R-enantiomer of ENX or a racemic mixture of R-and S-enantiomers of ENX
IC50 [14]: 9000 nM

Structure (SMILES): OC[C@H]1O[C@@H](n2cnc3c(NC4CCCC4)ncnc32)[C@H](O)[C@@H]1O [CPA, N^6 -cyclopentyladenosine, reference compound]
EC50 (A1-adenosine receptor [8]): 1 to 2 nM

EC50 (A1-adenosine receptor [8]): 403 nM
Structure (SMILES): [O-][n+]1cnc2c(ncn2[C@@H]2O[C@H](CO)[C@@H](O)[C@H]2O)c1N[C@@H]1C[C@@H]2C[C@H]1[C@H]1O[C@@H]21 (relative stereo) [N^6-(exo-5,6-epoxynorborn-2-yl) adenosine-1-oxide]

Structure (SMILES): CCCn1c(=O)c2[nH]c([C@@H]3C[C@H]4C[C@@H]3[C@@H]3O[C@H]43)nc2n(CCC)c1=O [R-ENX]
IC50 [9]: 2.7 nM
duration of action (A1 adenosine receptor [10]): very short duration of action as compared to the S-enantiomer
tracheal smooth muscle relaxation / bronchodilation [12]: bronchodilators
relaxation of spontaneous tone in trachea ([12]; guinea pig trachea): induce relaxation of spontaneous tone
metabolism [15]: rapidly degraded or metabolized
Ki [13]: 2.1 nM
IC50 [14]: 2600 nM

Structure (SMILES): CCCn1c(=O)c2[nH]c(C3CC4CC3C3OC43)nc2n(CCC)c1=O (racemic) [ENX, 1,3-dipropyl-8-{3-oxatricyclo[3.1.2.0^2,4]oct-6(7)-yl}-xanthine]
IC50 for A2 receptor-mediated coronary vasodilation (A2 receptor [16]): no effect
inhibition at 50 µM (A2 receptor [16]; read-out: inhibition of coronary vasodilation): 0%
Ki (A2 receptor [17]): 11700 nM
IC50 [9]: 1.65 nM
Ki (A1 adenosine receptor [18]): 0.45 ± 0.13 nM
phosphodiesterase inhibition (phosphodiesterase): does not inhibit phosphodiesterase
Kb (A1 receptor [19]): 3.6 nM
Slope of Schild plot (A1 receptor [19]): -0.91 ± 0.06
tracheal smooth muscle relaxation / bronchodilation [12]: relax tracheal smooth muscle
Ki (A2 adenosine receptor [20]): 360 ± 36 nM
Ki (A1 receptor [21]): 0.22 ± 0.03 nM
antagonism of S-H prolongation caused by adenosine (A1 receptor [22]; ENX 2 nM, 2 μM, adenosine 4 μM): did antagonize
effect on S-H interval prolongation caused by adenosine (A1 receptor [22]; ENX 0.4 μM with adenosine 4 μM): completely inhibited
Ki (A1 receptor [1]): 0.45 ± 0.22 nM
antagonism of negative dromotropic effect of carbachol or MgCl2 [23]: did not antagonize
diuretic potency compared with furosemide (Lasix) (rats; rat, in vivo): at least as high as the potency of furosemide
stimulus-to-His bundle interval, ENX alone (guinea pig hearts; ENX alone, up to 200 μM): no significant changes
LVP or dP/dt (guinea pig hearts; normoxic hearts, ENX 2-200 μM): no significant changes
IC50 [14]: 2100 nM

Structure (SMILES): CCCn1c(=O)c2[nH]c(C3CCCC3)nc2n(CCC)c1=O [CPX, 8-cyclopentyl-1,3-dipropylxanthine]
Slope of Schild plot (A1 receptor [19]): -0.81 ± 0.03
Ki (A1 receptor [21]): 0.13 ± 0.01 nM

A1 agonist potency and selectivity (A1 adenosine receptor [7]): potent and highly selective agonists
EC50 (A1-adenosine receptor [8]): 1 to 2 nM
Structure (SMILES): OC[C@H]1O[C@@H](n2cnc3c(N[C@@H]4C[C@@H]5C[C@H]4[C@H]4O[C@@H]54)ncnc32)[C@H](O)[C@@H]1O (relative stereo) [N^6-(exo-5,6-epoxynorborn-2-yl) adenosine]

IC50 (A2 receptor [16]): 7100 nM
Kb (A1 receptor [19]; Schild analysis, numbers in parentheses are minimum and maximum KB values, read-out: KB, equilibrium dissociation constant): 1.6 nM
Slope of Schild plot (A1 receptor [19]): -0.89 ± 0.11
Ki (A2 adenosine receptor [20]): 22 ± 6.9 nM
Ki (A1 receptor [21]; read-out: Ki, DDT1 MF2): 0.18 ± 0.05 nM
Ki (A1 receptor [1]; read-out: Ki, Brain): 3.8 ± 0.21 nM
Structure (SMILES): CCCn1c(=O)c2[nH]c(C34CC5CC(CC3C5)C4)nc2n(CCC)c1=O [NAX, 1,3dipropyl-8-(3-noradamantyl)xanthine]
